Measurements published in PubChem BioAssay (NCI).
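Cells were grown in 96-well plates and exposed to each compound for 48 hours at five concentrations; endpoints were interpolated linearly between bracketing concentrations, or set to the highest concentration if not reached. The concentration for 50% growth inhibition is given as GI50. Definition used: TGI = concentration required for complete inhibition of growth.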

Tests used:
Assay in all cases: growth of human tumour cells (NCI), 48 h
KM12 colon = system: KM12 colon
OVCAR-3 ovarian = system: OVCAR-3 ovarian
MDA-MB-435 = system: MDA-MB-435
T-47D breast = system: T-47D breast
NCI/ADR-RES ovarian = system: NCI/ADR-RES ovarian
A498 renal = system: A498 renal
OVCAR-4 ovarian = system: OVCAR-4 ovarian
HT29 colon = system: HT29 colon
NCI-H460 lung = system: NCI-H460 lung
MDA-MB-231 breast = system: MDA-MB-231 breast
SW-620 colon = system: SW-620 colon
SF-268 CNS = system: SF-268 CNS
HOP-62 NSCLC = system: HOP-62 NSCLC
ACHN renal = system: ACHN renal
SN12C renal = system: SN12C renal
PC-3 prostate = system: PC-3 prostate
CCRF-CEM leukemia = system: CCRF-CEM leukemia
MOLT-4 leukemia = system: MOLT-4 leukemia
SK-MEL-28 melanoma = system: SK-MEL-28 melanoma
DU-145 prostate = system: DU-145 prostate
NCI-H226 lung = system: NCI-H226 lung
UO-31 renal = system: UO-31 renal
SF-295 CNS = system: SF-295 CNS
IGROV1 ovarian = system: IGROV1 ovarian
U251 CNS = system: U251 CNS
SK-MEL-5 melanoma = system: SK-MEL-5 melanoma
OVCAR-5 ovarian = system: OVCAR-5 ovarian
SK-MEL-2 melanoma = system: SK-MEL-2 melanoma
RPMI-8226 leukemia = system: RPMI-8226 leukemia
OVCAR-8 ovarian = system: OVCAR-8 ovarian
SK-OV-3 ovarian = system: SK-OV-3 ovarian
CAKI-1 renal = system: CAKI-1 renal
HCT-116 colon = system: HCT-116 colon
HCT-15 colon = system: HCT-15 colon
BT-549 breast = system: BT-549 breast
SNB-19 CNS = system: SNB-19 CNS
A549 NSCLC = system: A549 NSCLC
UACC-257 melanoma = system: UACC-257 melanoma
NCI-H23 lung = system: NCI-H23 lung
HL-60(TB) leukemia = system: HL-60(TB) leukemia
786-0 renal = system: 786-0 renal
SF-539 CNS = system: SF-539 CNS
NCI-H522 lung = system: NCI-H522 lung
LOX IMVI melanoma = system: LOX IMVI melanoma
SNB-75 CNS = system: SNB-75 CNS
COLO 205 colon = system: COLO 205 colon
MCF7 breast = system: MCF7 breast
M14 melanoma = system: M14 melanoma
HS 578T breast = system: HS 578T breast
K-562 leukemia = system: K-562 leukemia

With `O=C(CCCC(=O)N/N=C/c1cc(Cl)ccc1O)N/N=C\c1cc(Cl)ccc1O` the GI50 (KM12 colon) was 3.98 µM, the TGI (KM12 colon) was > 100 µM and the GI50 (OVCAR-3 ovarian) was 0.847 µM. For the same molecule, the TGI (OVCAR-3 ovarian) was > 100 µM, the GI50 (MDA-MB-435) was 6.87 µM and the TGI (MDA-MB-435) was > 100 µM. For the same molecule, the GI50 (T-47D breast) was 3.23 µM, the TGI (T-47D breast) was > 100 µM and the GI50 (NCI/ADR-RES ovarian) was 3.44 µM. The TGI (NCI/ADR-RES ovarian) was > 100 µM, the GI50 (A498 renal) was 55 µM and the TGI (A498 renal) was > 100 µM. The GI50 (OVCAR-4 ovarian) was 1.25 µM, the TGI (OVCAR-4 ovarian) was > 100 µM and the GI50 (HT29 colon) was 21.2 µM. The TGI (HT29 colon) was > 100 µM, the GI50 (NCI-H460 lung) was 2.94 µM and the TGI (NCI-H460 lung) was > 100 µM. For the same molecule, the GI50 (MDA-MB-231 breast) was 2.63 µM, the TGI (MDA-MB-231 breast) was 91.6 µM and the GI50 (SW-620 colon) was 3.69 µM. The TGI (SW-620 colon) was > 100 µM, the GI50 (SF-268 CNS) was 2.5 µM and the TGI (SF-268 CNS) was > 100 µM. The GI50 (HOP-62 NSCLC) was 5.05 µM, the TGI (HOP-62 NSCLC) was > 100 µM and the GI50 (ACHN renal) was 1.58 µM. For the same molecule, the TGI (ACHN renal) was > 100 µM, the GI50 (SN12C renal) was 4.3 µM and the TGI (SN12C renal) was > 100 µM. The GI50 (PC-3 prostate) was 2.68 µM, the TGI (PC-3 prostate) was > 100 µM and the GI50 (CCRF-CEM leukemia) was 1.25 µM. It also gave a TGI (CCRF-CEM leukemia) of 34.3 µM, a GI50 (MOLT-4 leukemia) of 2.52 µM and a TGI (MOLT-4 leukemia) of 23.2 µM. The GI50 (SK-MEL-28 melanoma) was 3.68 µM, the TGI (SK-MEL-28 melanoma) was > 100 µM and the GI50 (DU-145 prostate) was 6.75 µM. For the same molecule, the TGI (DU-145 prostate) was > 100 µM, the GI50 (NCI-H226 lung) was 6.64 µM and the TGI (NCI-H226 lung) was 65.7 µM. For the same molecule, the GI50 (UO-31 renal) was 1.24 µM, the TGI (UO-31 renal) was > 100 µM and the GI50 (SF-295 CNS) was 3.74 µM. For the same molecule, the TGI (SF-295 CNS) was > 100 µM, the GI50 (IGROV1 ovarian) was 4.21 µM and the TGI (IGROV1 ovarian) was > 100 µM. The GI50 (U251 CNS) was 2.31 µM, the TGI (U251 CNS) was > 100 µM and the GI50 (SK-MEL-5 melanoma) was 2.5 µM. For the same molecule, the TGI (SK-MEL-5 melanoma) was > 100 µM, the GI50 (OVCAR-5 ovarian) was > 100 µM and the TGI (OVCAR-5 ovarian) was > 100 µM. The GI50 (SK-MEL-2 melanoma) was > 100 µM, the TGI (SK-MEL-2 melanoma) was > 100 µM and the GI50 (RPMI-8226 leukemia) was 4.67 µM. The TGI (RPMI-8226 leukemia) was > 100 µM, the GI50 (OVCAR-8 ovarian) was 2.86 µM and the TGI (OVCAR-8 ovarian) was > 100 µM. The GI50 (SK-OV-3 ovarian) was 5.95 µM, the TGI (SK-OV-3 ovarian) was > 100 µM and the GI50 (CAKI-1 renal) was 1.98 µM. The TGI (CAKI-1 renal) was > 100 µM, the GI50 (HCT-116 colon) was 3.75 µM and the TGI (HCT-116 colon) was > 100 µM. For the same molecule, the GI50 (HCT-15 colon) was 0.574 µM, the TGI (HCT-15 colon) was > 100 µM and the GI50 (BT-549 breast) was 7.34 µM. The TGI (BT-549 breast) was > 100 µM, the GI50 (SNB-19 CNS) was 4.42 µM and the TGI (SNB-19 CNS) was > 100 µM. For the same molecule, the GI50 (A549 NSCLC) was 3.69 µM, the TGI (A549 NSCLC) was > 100 µM and the GI50 (UACC-257 melanoma) was 2.71 µM. For the same molecule, the TGI (UACC-257 melanoma) was > 100 µM, the GI50 (NCI-H23 lung) was 11.9 µM and the TGI (NCI-H23 lung) was > 100 µM. It also gave a GI50 (HL-60(TB) leukemia) of 2.48 µM, a TGI (HL-60(TB) leukemia) of 8.28 µM and a GI50 (786-0 renal) of 3.59 µM. The TGI (786-0 renal) was > 100 µM, the GI50 (SF-539 CNS) was 2.66 µM and the TGI (SF-539 CNS) was 33.5 µM. The GI50 (NCI-H522 lung) was 3.62 µM, the TGI (NCI-H522 lung) was > 100 µM and the GI50 (LOX IMVI melanoma) was 1.69 µM. For the same molecule, the TGI (LOX IMVI melanoma) was 25.4 µM, the GI50 (SNB-75 CNS) was 8.16 µM and the TGI (SNB-75 CNS) was > 100 µM. The GI50 (COLO 205 colon) was 4.16 µM, the TGI (COLO 205 colon) was > 100 µM and the GI50 (MCF7 breast) was 2.54 µM. For the same molecule, the TGI (MCF7 breast) was > 100 µM, the GI50 (M14 melanoma) was 3.21 µM and the TGI (M14 melanoma) was > 100 µM. For the same molecule, the GI50 (HS 578T breast) was > 100 µM, the TGI (HS 578T breast) was > 100 µM and the GI50 (K-562 leukemia) was 2.88 µM. For the same molecule, the TGI (K-562 leukemia) was > 100 µM.
